# Data from patent publication US20200253860A1, “TOPICAL COMPOSITION FOR ANTIAGING BENEFITS” (Conopco, Inc., d/b/a UNILEVER, priority 2017, published 2020).
# System: Nrf2
# Test: Nrf2 activation in AREc32 cells (luciferase assay)
# Assay type: cell-based
# Conditions: for Nrf2 activation fold increase wrt the control: note to Table 1, concentration not stated
# Procedure: The AREc32 cells were obtained from CRX biosciences (Dundee, Scotland, UK). AREc32 cells were seeded into 96-well plates (flat-bottom white, opaque, sterile, with lids) at a density of 2×10^4, cells/well in 100 μL of complete media per well. Cell plates were then incubated at 37° C., 5% CO2 in a 95% humidified incubator for 24 hours before active addition. Tert butylhydroquinone (TBHQ) was used as an assay positive control. For performing the Nrf2 activity assay, the cells were lysed using Passive Lysis Buffer (PLB) (5×) procured from Promega. The PLB was diluted in a 1:5 ratio with distilled water to make 1× PLB solution. 20 μL of 1× PLB was added to each well of the 96 well plate, including 2 wells without cell (control wells). The plate was covered with aluminium foil to protect from light and incubated for 20 minutes at room temperature, on a rocker incubator. After 20 minutes, 18 μL of the cell lysate was transferred from the transparent 96 well cell culture plate to an opaque, white, flat bottom 96-well plate. The white flat bottom plates were proceeded for Luciferase assay. The Luciferase assay was performed by using Luciferase Assay System, from Promega. 80 μL of the Luciferase Reagent was added using the injector on the TECAN infinite M1000 instrument. Luminescence was measured for a period of 10 seconds using the Green 1 filter. The typical delay time of 2 seconds, and read time of 10 seconds was used. 4 readings were taken from each well within 1 min. The plate was advanced to the next well for a repeat of the inject-then-read process. The luciferase value was represented as fold change over control in Table 1.
Compound,Nrf2 activation Fold change wrt control (10 μM),Nrf2 activation fold increase wrt the control
"CC(C)(C)c1cc(O)ccc1O [TBHQ, Tert butylhydroquinone]",4.5 fold,
CCC/C=C/C=O [E-2-Hexenal],,1.1 fold
C=CC(C)(O)CCC=C(C)C (stereo not drawn) [Linalool],,barely any change
